“And” between values parts separate entries of the source, which are not always exact repeats. Identical values can stand only once.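 Method: 48-hour compound exposure of cells in 96-well plates, five concentrations, linear interpolation of endpoints. The concentration for 50% growth inhibition is given as GI50. At the TGI there is no net growth.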
Experiments:
Assay in all cases: DTP human tumour cell line panel, 48 h
[1] = system: SNB-19 CNS
[2] = system: K-562 leukemia
[3] = system: BT-549 breast
[4] = system: HCT-15 colon
[5] = system: SR leukemia
[6] = system: SK-MEL-5 melanoma
[7] = system: T-47D breast
[8] = system: MDA-N
[9] = system: MOLT-4 leukemia
[10] = system: PC-3 prostate
[11] = system: OVCAR-3 ovarian
[12] = system: SK-MEL-28 melanoma
[13] = system: LOX IMVI melanoma
[14] = system: RPMI-8226 leukemia
[15] = system: SN12C renal
[16] = system: SF-295 CNS
[17] = system: NCI-H522 lung
[18] = system: A498 renal
[19] = system: MALME-3M melanoma
[20] = system: SF-268 CNS
[21] = system: SW-620 colon
[22] = system: EKVX NSCLC
[23] = system: ACHN renal
[24] = system: CCRF-CEM leukemia
[25] = system: CAKI-1 renal
[26] = system: MDA-MB-435
[27] = system: HOP-92 NSCLC
[28] = system: UACC-62 melanoma
[29] = system: NCI-H23 lung
[30] = system: UO-31 renal
[31] = system: HOP-62 NSCLC
[32] = system: OVCAR-8 ovarian
[33] = system: TK-10 renal
[34] = system: IGROV1 ovarian
[35] = system: HS 578T breast
[36] = system: KM12 colon
[37] = system: A549 NSCLC
[38] = system: UACC-257 melanoma
[39] = system: HL-60(TB) leukemia
[40] = system: HT29 colon
[41] = system: NCI/ADR-RES ovarian
[42] = system: U251 CNS
[43] = system: NCI-H460 lung
[44] = system: HCT-116 colon
[45] = system: M14 melanoma
[46] = system: NCI-H226 lung
[47] = system: 786-0 renal
[48] = system: SK-MEL-2 melanoma
[49] = system: OVCAR-4 ovarian
[50] = system: OVCAR-5 ovarian
[51] = system: RXF 393 renal
[52] = system: MDA-MB-231 breast
[53] = system: SK-OV-3 ovarian
[54] = system: SF-539 CNS
[55] = system: SNB-75 CNS
[56] = system: COLO 205 colon
[57] = system: DU-145 prostate
[58] = system: MCF7 breast
[59] = system: HCC-2998 colon

## NC(Cc1ccccc1)P(=O)(O)O (stereo not drawn)
[1]
  TGI: > 100 µM
[2]
  TGI: > 100 µM
[3]
  TGI: > 100 µM
[4]
  TGI: > 100 µM
[5]
  TGI: > 100 µM
[6]
  TGI: > 100 µM
[7]
  TGI: > 100 µM
[8]
  TGI: > 100 µM
[9]
  TGI: > 100 µM
[10]
  TGI: > 100 µM
[11]
  TGI: > 100 µM
[12]
  TGI: > 100 µM
[13]
  TGI: > 100 µM
[14]
  TGI: > 100 µM
[15]
  TGI: > 100 µM
[16]
  TGI: > 100 µM
[17]
  TGI: > 100 µM
[18]
  TGI: > 100 µM
[19]
  TGI: > 100 µM
[20]
  TGI: > 100 µM
[21]
  TGI: > 100 µM
[22]
  TGI: > 100 µM
[23]
  TGI: > 100 µM
[24]
  TGI: > 100 µM
[25]
  TGI: > 100 µM
[26]
  TGI: > 100 µM
[27]
  TGI: > 100 µM
[28]
  TGI: > 100 µM
[29]
  TGI: > 100 µM
[30]
  TGI: > 100 µM
[31]
  TGI: > 100 µM
[32]
  TGI: > 100 µM
[33]
  TGI: > 100 µM
[34]
  TGI: > 100 µM
[35]
  TGI: > 100 µM
[36]
  TGI: > 100 µM
[37]
  TGI: > 100 µM
[38]
  TGI: > 100 µM
[39]
  TGI: > 100 µM
[40]
  TGI: > 100 µM
[41]
  TGI: > 100 µM
[42]
  TGI: > 100 µM
[43]
  TGI: > 100 µM
[44]
  TGI: > 100 µM
[45]
  TGI: > 100 µM
[46]
  TGI: > 100 µM
[47]
  TGI: > 100 µM
[48]
  TGI: > 100 µM
[49]
  TGI: > 100 µM
[50]
  TGI: > 100 µM
[51]
  TGI: > 100 µM
[52]
  TGI: > 100 µM

## CCn1c2ccccc2c2cc(N=Nc3ccc(C#N)cc3)ccc21
[1]
  TGI: 71.6 µM
[3]
  TGI: 57.1 µM
[4]
  TGI: > 100 µM
[53]
  TGI: > 100 µM
[6]
  TGI: > 100 µM
[7]
  TGI: > 100 µM
[8]
  TGI: > 100 µM
[9]
  TGI: > 100 µM
[10]
  TGI: > 100 µM
[11]
  TGI: > 100 µM
[12]
  TGI: > 100 µM
[54]
  TGI: > 100 µM
[13]
  TGI: 61.8 µM
[15]
  TGI: > 100 µM
[16]
  TGI: > 100 µM
[17]
  TGI: > 100 µM
[18]
  TGI: 70 µM
[19]
  TGI: 52.7 µM
[20]
  TGI: > 100 µM
[21]
  TGI: > 100 µM
[22]
  TGI: > 100 µM
[23]
  TGI: > 100 µM
[24]
  TGI: > 100 µM
[25]
  TGI: > 100 µM
[26]
  TGI: > 100 µM
[27]
  TGI: 79.7 µM
[28]
  TGI: > 100 µM
[29]
  TGI: 68.6 µM
[30]
  TGI: > 100 µM
[31]
  TGI: > 100 µM
[32]
  TGI: > 100 µM
[33]
  TGI: > 100 µM
[34]
  TGI: > 100 µM
[35]
  TGI: > 100 µM
[36]
  TGI: > 100 µM
[37]
  TGI: > 100 µM
[38]
  TGI: > 100 µM
[39]
  TGI: > 100 µM
[40]
  TGI: > 100 µM
[55]
  TGI: 87.6 µM
[42]
  TGI: > 100 µM
[43]
  TGI: > 100 µM
[44]
  TGI: > 100 µM
[45]
  TGI: > 100 µM
[56]
  TGI: > 100 µM
[57]
  TGI: > 100 µM
[46]
  TGI: > 100 µM
[47]
  TGI: > 100 µM
[48]
  TGI: > 100 µM
[58]
  TGI: > 100 µM
[49]
  TGI: > 100 µM
[50]
  TGI: > 100 µM
[52]
  TGI: 59 µM

## Cc1ccc(C(=O)Nc2ccc(S(=O)(=O)O)c3cc(S(=O)(=O)O)cc(S(=O)(=O)O)c23)cc1N
[1]
  TGI: > 100 µM
[2]
  TGI: > 100 µM
[3]
  TGI: > 100 µM
[4]
  TGI: > 100 µM
[5]
  TGI: > 100 µM
[53]
  TGI: > 100 µM
[6]
  TGI: > 100 µM
[7]
  TGI: > 100 µM
[8]
  TGI: > 100 µM
[59]
  TGI: > 100 µM
[9]
  TGI: > 100 µM
[10]
  TGI: > 100 µM
[11]
  TGI: > 100 µM
[12]
  TGI: > 100 µM
[54]
  TGI: > 100 µM
[15]
  TGI: > 100 µM
[16]
  TGI: > 100 µM
[17]
  TGI: > 100 µM
[18]
  TGI: > 100 µM
[19]
  TGI: > 100 µM
[20]
  TGI: > 100 µM
[21]
  TGI: > 100 µM
[22]
  TGI: > 100 µM
[23]
  TGI: > 100 µM
[24]
  TGI: > 100 µM
[25]
  TGI: > 100 µM
[28]
  TGI: > 100 µM
[29]
  TGI: > 100 µM
[30]
  TGI: > 100 µM
[31]
  TGI: > 100 µM
[32]
  TGI: > 100 µM
[33]
  TGI: > 100 µM
[34]
  TGI: > 100 µM
[35]
  TGI: > 100 µM
[36]
  TGI: > 100 µM
[38]
  TGI: > 100 µM
[39]
  TGI: > 100 µM
[40]
  TGI: > 100 µM
[55]
  TGI: > 100 µM
[41]
  TGI: > 100 µM
[43]
  TGI: > 100 µM
[44]
  TGI: > 100 µM
[45]
  TGI: > 100 µM
[56]
  TGI: > 100 µM
[57]
  TGI: > 100 µM
[46]
  TGI: > 100 µM
[47]
  TGI: > 100 µM
[48]
  TGI: > 100 µM
[58]
  TGI: > 100 µM
[49]
  TGI: > 100 µM
[50]
  TGI: > 100 µM
[51]
  TGI: > 100 µM
[52]
  TGI: > 100 µM

## Fc1cccc(C2SCC3=Nc4ccccc4CN32)c1 (stereo not drawn)
[1]
  TGI: > 100 µM
[2]
  TGI: > 100 µM
[3]
  TGI: > 100 µM
[4]
  TGI: > 100 µM
[5]
  TGI: > 100 µM
[53]
  TGI: > 100 µM
[6]
  TGI: 41.1 µM
[7]
  TGI: > 100 µM
[8]
  TGI: > 100 µM
[59]
  TGI: > 100 µM
[9]
  TGI: > 100 µM
[10]
  TGI: > 100 µM
[11]
  TGI: 70.5 µM
[12]
  TGI: > 100 µM
[54]
  TGI: > 100 µM
[13]
  TGI: > 100 µM
[14]
  TGI: > 100 µM
[15]
  TGI: > 100 µM
[16]
  TGI: > 100 µM
[18]
  TGI: > 100 µM
[20]
  TGI: > 100 µM
[21]
  TGI: > 100 µM
[22]
  TGI: > 100 µM
[23]
  TGI: > 100 µM
[24]
  TGI: > 100 µM
[25]
  TGI: > 100 µM
[26]
  TGI: > 100 µM
[27]
  TGI: > 100 µM
[28]
  TGI: > 100 µM
[29]
  TGI: > 100 µM
[30]
  TGI: > 100 µM
[31]
  TGI: > 100 µM
[32]
  TGI: > 100 µM
[33]
  TGI: > 100 µM
[36]
  TGI: > 100 µM
[37]
  TGI: > 100 µM
[38]
  TGI: > 100 µM
[39]
  TGI: > 100 µM
[40]
  TGI: 74.3 µM
[55]
  TGI: > 100 µM
[41]
  TGI: 35.9 µM
[42]
  TGI: > 100 µM
[43]
  TGI: > 100 µM
[44]
  TGI: 88.6 µM
[45]
  TGI: > 100 µM
[56]
  TGI: > 100 µM
[57]
  TGI: > 100 µM
[47]
  TGI: > 100 µM
[48]
  TGI: 49.7 µM
[58]
  TGI: > 100 µM
[49]
  TGI: > 100 µM
[50]
  TGI: > 100 µM
[51]
  TGI: > 100 µM
[52]
  TGI: > 100 µM

## CCOP(=O)(O)CC1OC(CO)C(O)C1O (stereo not drawn)
[1]
  TGI: > 100 µM
[2]
  TGI: > 100 µM
[3]
  TGI: > 100 µM
[4]
  TGI: > 100 µM
[53]
  TGI: > 100 µM
[6]
  TGI: > 100 µM
[7]
  TGI: > 100 µM
[8]
  TGI: > 100 µM
[9]
  TGI: > 100 µM
[10]
  TGI: > 100 µM
[11]
  TGI: > 100 µM
[12]
  TGI: > 100 µM
[54]
  TGI: > 100 µM
[13]
  TGI: > 100 µM
[15]
  TGI: > 100 µM
[16]
  TGI: > 100 µM
[17]
  TGI: > 100 µM
[19]
  TGI: > 100 µM
[20]
  TGI: > 100 µM
[21]
  TGI: > 100 µM
[22]
  TGI: > 100 µM
[23]
  TGI: > 100 µM
[24]
  TGI: > 100 µM
[27]
  TGI: > 100 µM
[28]
  TGI: > 100 µM
[29]
  TGI: > 100 µM
[30]
  TGI: > 100 µM
[31]
  TGI: > 100 µM
[32]
  TGI: > 100 µM
[33]
  TGI: > 100 µM
[34]
  TGI: > 100 µM
[35]
  TGI: > 100 µM
[37]
  TGI: > 100 µM
[38]
  TGI: > 100 µM
[39]
  GI50: 30.1 µM and > 100 µM
  TGI: > 100 µM
[40]
  TGI: > 100 µM
[55]
  TGI: > 100 µM
[41]
  TGI: > 100 µM
[42]
  TGI: > 100 µM
[43]
  TGI: > 100 µM
[44]
  TGI: > 100 µM
[45]
  TGI: > 100 µM
[56]
  TGI: > 100 µM
[57]
  TGI: > 100 µM
[46]
  TGI: > 100 µM
[47]
  TGI: > 100 µM
[48]
  TGI: > 100 µM
[50]
  TGI: > 100 µM
[51]
  TGI: > 100 µM
[52]
  TGI: > 100 µM
